Laboratory results reported in patent US12649750B2, “Macrocyclic compounds, compositions, and methods of using thereof” (Sionna Therapeutics Inc., priority 2022, dated 2026).

Experiments:
CFTR = biological target: T1, CFTR (Homo sapiens, UniProt P13569, DEL508-508); assay: TECC24 AUC fold over DMSO @10 μM, CFTR-mediated transepithelial chloride transport in CF-HBE cells; assay type: cell-based; conditions: test agent AUC divided by DMSO vehicle AUC, primary CF-HBE cells, ΔF508 homozygous donor, 48 hours incubation
T1 construct: Primary human bronchial epithelial cells from a ΔF508 homozygous CF donor; host or cells: primary human bronchial epithelial cells (CF-HBE), ΔF508 homozygous donor
In short: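 Primary ΔF508-homozygous CF bronchial epithelial cells on inserts were incubated 48 h at 36.5 °C with compound in IL-13-containing medium. VT and TEER were then recorded in current-clamp mode (pH 7.4 HEPES bath) with benzamil 10 μM, forskolin 10 μM, then CFTR inhibitor-172 20 μM. The IEQ AUC between forskolin and inhibitor was divided by vehicle AUC.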

NBD1 = biological target: T2, NBD1 (Homo sapiens, UniProt P13569); assay: Aggregation analysis using differential static light scattering (DSLS), thermal stability of NBD1 (ΔTagg); assay type: binding; conditions: ΔTagg versus DMSO control, NBD1 0.2 mg/ml
T2 construct: Purified recombinant NBD1 was produced using previously described methods; made in house
In short: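 Purified recombinant NBD1 at 0.2 mg/ml in Tris buffer pH7.6 with 2 mM ATP, 5 mM MgCl2, 2 mM DTT and 1% glycerol was mixed with DMSO-dissolved compounds under mineral oil. Plates were heated at 1° C. per minute to 70° C., light scattering imaged every 0.5° C.; Tagg from curve inflection, minus DMSO-control mean.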

T1 sequence (P13569 with tags, fused parts or gaps DEL508-508): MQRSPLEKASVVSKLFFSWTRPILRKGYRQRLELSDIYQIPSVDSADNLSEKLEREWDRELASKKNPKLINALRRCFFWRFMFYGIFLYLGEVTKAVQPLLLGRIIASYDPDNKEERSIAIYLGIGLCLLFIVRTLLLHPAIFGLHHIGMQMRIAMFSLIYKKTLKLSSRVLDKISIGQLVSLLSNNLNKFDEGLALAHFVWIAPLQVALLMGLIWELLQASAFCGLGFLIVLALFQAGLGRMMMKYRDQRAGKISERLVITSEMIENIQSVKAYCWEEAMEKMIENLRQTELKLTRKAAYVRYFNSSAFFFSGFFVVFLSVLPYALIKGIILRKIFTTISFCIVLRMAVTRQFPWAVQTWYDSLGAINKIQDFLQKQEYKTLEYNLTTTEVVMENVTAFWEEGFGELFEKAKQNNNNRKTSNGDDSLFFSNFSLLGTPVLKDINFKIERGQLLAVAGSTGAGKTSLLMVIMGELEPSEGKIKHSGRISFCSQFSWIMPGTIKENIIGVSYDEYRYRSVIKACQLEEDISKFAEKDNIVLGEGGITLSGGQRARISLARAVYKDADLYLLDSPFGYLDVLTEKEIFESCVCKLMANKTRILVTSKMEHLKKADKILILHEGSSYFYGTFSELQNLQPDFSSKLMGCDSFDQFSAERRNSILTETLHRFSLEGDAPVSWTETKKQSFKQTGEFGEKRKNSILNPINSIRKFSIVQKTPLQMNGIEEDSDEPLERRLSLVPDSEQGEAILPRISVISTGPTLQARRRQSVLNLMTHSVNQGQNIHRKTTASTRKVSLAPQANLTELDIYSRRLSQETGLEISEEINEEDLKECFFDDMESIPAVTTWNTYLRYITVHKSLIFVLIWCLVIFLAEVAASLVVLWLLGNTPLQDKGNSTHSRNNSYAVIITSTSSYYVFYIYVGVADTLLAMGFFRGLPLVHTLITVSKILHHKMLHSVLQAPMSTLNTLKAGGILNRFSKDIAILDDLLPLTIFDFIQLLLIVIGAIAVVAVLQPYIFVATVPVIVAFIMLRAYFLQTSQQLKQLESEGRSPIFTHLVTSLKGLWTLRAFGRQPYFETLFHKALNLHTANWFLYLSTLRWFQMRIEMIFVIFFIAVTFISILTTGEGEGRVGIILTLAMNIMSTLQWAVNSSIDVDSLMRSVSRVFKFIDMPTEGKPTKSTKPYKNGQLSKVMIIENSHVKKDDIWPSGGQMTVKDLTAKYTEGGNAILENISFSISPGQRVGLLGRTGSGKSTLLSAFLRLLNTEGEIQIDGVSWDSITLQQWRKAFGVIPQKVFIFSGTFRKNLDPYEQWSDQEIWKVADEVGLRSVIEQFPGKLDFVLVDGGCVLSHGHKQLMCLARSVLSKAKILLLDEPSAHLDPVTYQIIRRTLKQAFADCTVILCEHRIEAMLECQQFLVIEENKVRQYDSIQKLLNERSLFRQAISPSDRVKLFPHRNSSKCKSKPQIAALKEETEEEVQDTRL
T2 sequence (P13569 423-646 limits assumed): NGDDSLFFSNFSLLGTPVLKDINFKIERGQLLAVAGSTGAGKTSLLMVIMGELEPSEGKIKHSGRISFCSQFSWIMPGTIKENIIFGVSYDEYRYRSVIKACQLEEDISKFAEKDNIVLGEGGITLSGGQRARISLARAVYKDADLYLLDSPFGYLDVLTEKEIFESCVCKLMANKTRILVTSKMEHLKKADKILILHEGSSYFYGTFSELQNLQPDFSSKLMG

Row | SMILES | TECC (AUC, 10 μM) (CFTR) | DSLS 3D (100 μM ΔT) (NBD1)
1 | CC(Cc1cccc(C2(CNCC(F)(F)F)CCCC(C)(C)CS(=O)(=O)CCc3c(c(F)cc4[nH]ccc34)Oc3ccc(F)c(c3)-c3nc2nn3C)c1)C(=O)O (single isomer, unassigned) [Compound 133A, 3-[3-[22,28-difluoro-3,10,10-trimethyl-12,12-dioxo-6-[(2,2,2-trifluoroethylamino)methyl]-24-oxa-12λ6-thia-3,4,19,30-tetrazapentacyclo[23.3.1.12,5.015,23.016,20]triaconta-1(29),2(30),4,15,17,20,22,25,27-nonaen-6-yl]phenyl]-2-methyl-propanoic Acid] | C (a value between 20 and 80 is marked “C”) | C (a value greater than 10 °C and less than or equal to 25 °C is marked “C”)
2 | CC(Cc1cccc(C2(CNCC(F)(F)F)CCCC(C)(C)CS(=O)(=O)CCc3c(c(F)cc4[nH]ccc34)Oc3ccc(F)c(c3)-c3nc2nn3C)c1)C(=O)O (single isomer, unassigned) [Compound 133B, 3-[3-[22,28-difluoro-3,10,10-trimethyl-12,12-dioxo-6-[(2,2,2-trifluoroethylamino)methyl]-24-oxa-12λ6-thia-3,4,19,30-tetrazapentacyclo[23.3.1.12,5.015,23.016,20]triaconta-1(29),2(30),4,15,17,20,22,25,27-nonaen-6-yl]phenyl]-2-methyl-propanoic Acid] | A (a TECC value less than 12 is marked “A”) | B (a value above 5 °C and less than or equal to 10 °C is marked “B”)
3 | Cn1nc2nc1-c1cc(ccc1F)Oc1c(F)cc3[nH]ccc3c1CCS(=O)(=O)CC(C)(C)CCCC2(C)c1cccc(CC(O)C(=O)O)c1 (single isomer, unassigned) [Compound 134A, 3-[3-(22,28-Difluoro-3,6,10,10-tetramethyl-12,12-dioxo-24-oxa-12λ6-thia-3,4,19,30-tetrazapentacyclo-[23.3.1.12,5.015,23.016,20]-triaconta-1(29),2(30),4,15,17,20,22,25,27-nonaen-6-yl)phenyl]-2-hydroxy-propanoic Acid] | C (a value between 20 and 80 is marked “C”) | C (a value greater than 10 °C and less than or equal to 25 °C is marked “C”)
4 | Cn1nc2nc1-c1cc(ccc1F)Oc1c(F)cc3[nH]ccc3c1CCS(=O)(=O)CC(C)(C)CCCC2(C)c1cccc(CC(O)C(=O)O)c1 (single isomer, unassigned) [Compound 134B, 3-[3-(22,28-Difluoro-3,6,10,10-tetramethyl-12,12-dioxo-24-oxa-12λ6-thia-3,4,19,30-tetrazapentacyclo-[23.3.1.12,5.015,23.016,20]-triaconta-1(29),2(30),4,15,17,20,22,25,27-nonaen-6-yl)phenyl]-2-hydroxy-propanoic Acid] | A (a TECC value less than 12 is marked “A”) | A (an ΔTagg value less than or equal to 5 °C is marked “A”)
5 | COC(Cc1cccc(C2(C)CCCC(C)(C)CS(=O)(=O)CCc3c(c(F)cc4[nH]ccc34)Oc3ccc(F)c(c3)-c3nc2nn3C)c1)C(=O)O (single isomer, unassigned) [Compound 135A, 3-[3-(22,28-Difluoro-3,6,10,10-tetramethyl-12,12-dioxo-24-oxa-12λ6-thia-3,4,19,30-tetrazapentacyclo-[23.3.1.12,5.015,23.016,20]triaconta-1(29),2(30),4,15,17,20,22,25,27-nonaen-6-yl)phenyl]-2-methoxy-propanoic Acid] | A (a TECC value less than 12 is marked “A”) | A (an ΔTagg value less than or equal to 5 °C is marked “A”)
6 | COC(Cc1cccc(C2(C)CCCC(C)(C)CS(=O)(=O)CCc3c(c(F)cc4[nH]ccc34)Oc3ccc(F)c(c3)-c3nc2nn3C)c1)C(=O)O (single isomer, unassigned) [Compound 135B, 3-[3-(22,28-Difluoro-3,6,10,10-tetramethyl-12,12-dioxo-24-oxa-12λ6-thia-3,4,19,30-tetrazapentacyclo-[23.3.1.12,5.015,23.016,20]triaconta-1(29),2(30),4,15,17,20,22,25,27-nonaen-6-yl)phenyl]-2-methoxy-propanoic Acid] | C (a value between 20 and 80 is marked “C”) | C (a value greater than 10 °C and less than or equal to 25 °C is marked “C”)
7 | CC(Cc1cccc(C2(CN)CCCC(C)(C)CS(=O)(=O)CCc3c(c(F)cc4[nH]ccc34)Oc3ccc(F)c(c3)-c3nc2nn3C)c1)C(=O)O (single isomer, unassigned) [Compound 136A, 3-[3-[6-(aminomethyl)-22,28-difluoro-3,10,10-trimethyl-12,12-dioxo-24-oxa-12λ6-thia-3,4,19,30-tetrazapentacyclo-[23.3.1.12,5.015,23.016,20]triaconta-1(29),2(30),4,15,17,20,22,25,27-nonaen-6-yl]phenyl]-2-methyl-propanoic Acid] | A (a TECC value less than 12 is marked “A”) | A (an ΔTagg value less than or equal to 5 °C is marked “A”)
8 | CC(Cc1cccc(C2(CN)CCCC(C)(C)CS(=O)(=O)CCc3c(c(F)cc4[nH]ccc34)Oc3ccc(F)c(c3)-c3nc2nn3C)c1)C(=O)O (single isomer, unassigned) [Compound 136B, 3-[3-[6-(aminomethyl)-22,28-difluoro-3,10,10-trimethyl-12,12-dioxo-24-oxa-12λ6-thia-3,4,19,30-tetrazapentacyclo-[23.3.1.12,5.015,23.016,20]triaconta-1(29),2(30),4,15,17,20,22,25,27-nonaen-6-yl]phenyl]-2-methyl-propanoic Acid] | C (a value between 20 and 80 is marked “C”) | C (a value greater than 10 °C and less than or equal to 25 °C is marked “C”)
9 | CC(Cc1cccc(C2(CNCC(F)F)CCCC(C)(C)CS(=O)(=O)CCc3c(c(F)cc4[nH]ccc34)Oc3ccc(F)c(c3)-c3nc2nn3C)c1)C(=O)O (single isomer, unassigned) [Compound 137B, 3-[3-[6-[(2,2-difluoroethylamino)methyl]-22,28-difluoro-3,10,10-trimethyl-12,12-dioxo-24-oxa-12λ6-thia-3,4,19,30-tetrazapentacyclo[23.3.1.12,5.015,23.016,20]triaconta-1(29),2(30),4,15,17,20,22,25,27-nonaen-6-yl]phenyl]-2-methyl-propanoic Acid] | A (a TECC value less than 12 is marked “A”) | B (a value above 5 °C and less than or equal to 10 °C is marked “B”)
10 | CC(C)OC(=O)[C@@H](C)Cc1cccc(C2(C)CCCC(C)(C)CS(=O)(=O)CCc3c(c(F)cc4[nH]ccc34)Oc3ccc(F)c(c3)-c3nc2nn3C)c1 (single isomer, unassigned) [Compound 139] | C (a value between 20 and 80 is marked “C”) | B (a value above 5 °C and less than or equal to 10 °C is marked “B”)
11 | C[C@@H](Cc1cccc(C2(C)CCCC(C)(C)CS(=O)(=O)CCc3c(c(F)cc4[nH]ccc34)Oc3ccc(F)c(c3)-c3nc2nn3C)c1)C(=O)OCCO (single isomer, unassigned) [Compound 140] | B (a value between 12-20 is marked “B”) | C (a value greater than 10 °C and less than or equal to 25 °C is marked “C”)
12 | C[C@@H](Cc1cccc(C2(C)CCCC(C)(C)CS(=O)(=O)CCc3c(c(F)cc4[nH]ccc34)Oc3ccc(F)c(c3)-c3nc2nn3C)c1)C(=O)OCC(O)CO (single isomer, unassigned) [Compound 141] | B (a value between 12-20 is marked “B”) | C (a value greater than 10 °C and less than or equal to 25 °C is marked “C”)
13 | C[C@@H](Cc1cccc(C2(C)CCCC(C)(C)CS(=O)(=O)CCc3c(c(F)cc4[nH]ccc34)Oc3ccc(F)c(c3)-c3nc2nn3C)c1)C(=O)OCCN1CCOCC1 (single isomer, unassigned) [Compound 142] | B (a value between 12-20 is marked “B”) | B (a value above 5 °C and less than or equal to 10 °C is marked “B”)
14 | C[C@@H](Cc1cccc(C2(C)CCCC(C)(C)CS(=O)(=O)CCc3c(c(F)cc4[nH]ccc34)Oc3ccc(F)c(c3)-c3nc2nn3C)c1)C(=O)OCCN1CCN(C)CC1 (single isomer, unassigned) [Compound 143] | B (a value between 12-20 is marked “B”) | B (a value above 5 °C and less than or equal to 10 °C is marked “B”)
15 | C[C@@H](Cc1cccc(C2(C)CCCC(C)(C)CS(=O)(=O)CCc3c(c(F)cc4[nH]ccc34)Oc3ccc(F)c(c3)-c3nc2nn3C)c1)C(=O)OCc1coc(=O)o1 (single isomer, unassigned) [Compound 144] | B (a value between 12-20 is marked “B”) | C (a value greater than 10 °C and less than or equal to 25 °C is marked “C”)
